# Assay results published in US5849587A, “Method of inhibiting viral replication in eukaryotic cells and of inducing apoptosis of virally-infected cells” (Cornell Research Foundation, Inc., priority 1995, dated 1998).
# Entries after “also recorded” stand apart in the source; their conditions may differ.
# Key:
# HIV-1 RNA = test: Splicing analysis (Northern blot) of HIV-1 RNA in PMA-induced ACH-2 cells; assay type: cell-based; conditions: 200 μM, FIG. 7
# Text: At about 9-kb is the position of unspliced viral MRNA species representing the infectious viral genome and encoding key structural proteins for core and capsid. At about 4-kb is the position of incompletely spliced viral MRNA species encoding structural and regulatory proteins. At about 2-kb is the position of completely spliced viral MRNA species encoding regulatory proteins, such as Rev. […] Lane B is for the high level expression of HIV-1 RNA after induction with PMA; note the presence of the 9-kb species.
# ACH-2 cells were incubated with hypusine inhibitors (mimosine, HK-1) and induced with PMA as outlined in Example II A. From control cells, from cells induced with PMA, and from PMA-induced cells treated with 200 μM mimosine/HK-1, in each case aliqouts of 1.2×10^7 cells, the total cellular RNA was isolated by the guanidinium isothiocyanate-cesium chloride method [Chirgwin et al., Biochemistrv 18, 5294-5299 (1979), which is hereby incorporated by reference]. Equal quantities of RNA from each cell sample were electrophoresed on a 1% agarose-formaldehyde gel, transferred to nitrocellulose, and hybridized with randomly primed, ^32 P-dCTP-labeled genomic HIV-1 probe pBH10 [Ratner et al., Nature 313, 277-284 (1985), which is hereby incorporated by reference]. Following hybridization, the blots were washed extensively, dried, and autoradiographed. […]
# [1] = target: T1, deoxyhypusyl hydroxylase (DOHH) in human T-cell line ACH-2 (Homo sapiens, UniProt Q9BU89); test: Deoxyhypusine-to-hypusine conversion by DOHH in ACH-2 cells; assay type: cell-based; conditions: for activity at 200 µM: ACH-2, 22 h, 22 hours, ACH-2 cells, FIG. 5, remaining conversion; for resumption of conversion after inhibitor removal: within 2 hours of inhibitor removal, after 200 μM, ACH-2
# T1 construct: endogenous in cells; host or cells: ACH-2 (human T-cell line, subclone of the A3.01 variant of CEM)
# T1 sequence (Q9BU89 1-302): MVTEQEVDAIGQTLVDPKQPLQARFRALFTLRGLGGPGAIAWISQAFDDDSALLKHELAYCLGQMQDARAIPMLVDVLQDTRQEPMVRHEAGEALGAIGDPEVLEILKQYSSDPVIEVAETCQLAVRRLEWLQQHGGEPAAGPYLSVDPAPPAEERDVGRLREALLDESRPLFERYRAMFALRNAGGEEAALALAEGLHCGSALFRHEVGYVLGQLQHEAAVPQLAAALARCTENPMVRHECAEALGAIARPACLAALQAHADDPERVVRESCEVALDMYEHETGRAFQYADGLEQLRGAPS
# Experimental: DOHH Assay. The intracellular conversion of peptide-bound deoxyhypusine to peptidyl hypusine was determined after preincubation of human T lymphocyte-derived cells (i.e. ACH-2) [Clouse et al., J. Immunol. 142, 431-438 (1989), which is hereby incorporated by reference] with the hypusine inhibitors mimosine and HK-1 for 60 minutes, followed by labeling for 21 hours with ^3 H-spermidine (3.75 μCi/ml) in wells containing 3×10^6 cells suspended in 8 ml of serum-supplemented and antibiotic-containing RPMI 1640 medium. Cells were then split into two groups, one of them being harvested immediately to assess degree of DOHH inhibition, and the other harvested after transfer of the cells into inhibitor-free medium for 2 hours to measure resumption of DOHH activity. Harvesting consisted in precipitation of washed cells with 10% TCA containing 1 mM each of putrescine, spermidine, and spermine. Cellular proteins from each sample were then hydrolyzed in 6N HCl at 110° C. for 16 hours. The hydrolysate was analyzed for labeled amino acids on an amino acid analyzer by published methods [Park et al., J. Biol. Chem., 257, 7217-7222 (1982), which is hereby incorporated by reference]. The retention times of hypusine and deoxyhypusine were determined from standards. Similar studies were performed in human B-cells and human smooth muscle cells.
# [2] = test system: uninfected parent cell line CEM; test: Flow cytometry of genomic DNA 3'-ends (apoptosis), uninfected parent cells; assay type: cell-based, human; conditions: for genomic DNA 3'-ends, CEM: 200 μM, 18 hours, FIG. 13
# Experimental: FIGS. 13A-F show the flowcytometrically determined distribution of the number of fluorescently labeled 3'-ends in the genomic DNA of HIV-1 producing ACH-2 cells ("ACH-2") and their uninfected parent cell line CEM ("CEM"), both receiving no treatment ("NT") or treatment for 18 hours with either 200 μM mimosine ("MIM") or 200 μM HK-1 ("HK1"). […] This is the hallmark of irreversible auto-destruction of a cell's genetic library.
# FIGS. 14A-H show the flowcytometrically determined distribution of the number of fluorescently labeled 3'-ends in the genomic DNA of HIV-1 producing ACH-2 cells ("ACH-2") and of their uninfected parent cell line CEM ("CEM"), both receiving no treatment ("NT") or treatment for 18 hours with 200 μM mimosine ("MIM"), followed by inhibitor withdrawal and reincubation in fresh medium for 2 hours.
# ACH-2 cells were incubated with hypusine inhibitors (mimosine, HK-1) and induced with PMA as outlined in Example II A, except that the duration of exposure to inhibitor was extended to 18-21 hours and that cells were labeled as detailed in Example I B. Half of the cells were then harvested and processed for detection of apoptosis, while the other half was washed free of inhibitors and re-incubated in fresh medium for 2-4 hours, followed by harvesting and processing for detection of […] apoptosis. Using the same protocol, cultures of the parent CEM cell line were incubated in parallel. For assessment of apoptosis, cell viability was measured by exclusion of the dye trypan blue, by retention of the ^3 H-spermidine-derived intracellular radioactivity incorporated into the obligatory intracellular protein eIF-5A, and by direct fluorescence detection of the intemucleosomal degradation of genomic DNA. Such irreversible genome degradation signals the activation of pre-programmed suicide mechanisms within any cell, which is the hallmark of apoptosis, and inescapably results in cell death [Compton, Cancer Metast. 11, 105-119 (1992), which is hereby incorporated by reference]. For the latter method, a commercially available kit was used (Oncor, Gaithersburg, Md.). […]
Structure (SMILES),HIV-1 RNA splicing pattern (HIV-1 RNA),activity at 200 µM [1] [%],resumption of conversion after inhibitor removal [1],"genomic DNA 3'-ends, CEM [2]","average fluorescence peak after incubation and withdrawal, CEM ([2]; 200 μM 18 hours, then 2 hours withdrawal, FIG. 14)"
"Cc1c(O)c(=O)ccn1C [HK-1, 1,2-dimethyl-3-hydroxypyrid-4-one]",apparent lack of 9-kb and 4-kb species,≤ 10,almost tripled; also recorded: recovers readily and triples within the first 2 hours of inhibitor removal,"did not affect the position of this peak in uninfected CEM cells; also recorded: Only the virally-infected ACH-2, but not the parent CEM cells reacted to the inhibitors",
N[C@@H](Cn1ccc(=O)c(O)c1)C(=O)O [L-Mimosine],apparent lack of the 9-kb species,≤ 10,almost tripled; also recorded: recovers readily and triples within the first 2 hours of inhibitor removal,"did not affect the position of this peak in uninfected CEM cells; also recorded: Only the virally-infected ACH-2, but not the parent CEM cells reacted to the inhibitors","the position and shape of the average fluorescence peak in CEM cells did not change; also recorded: Only the virally infected ACH-2, but not the parent CEM cells reacted to the inhibitor"
